Measured values: patent publication US6967075B2 (priority 2000, dated 2005)
Entries after “also recorded” stand apart in the source; their conditions may differ.

Target: poliovirus 3D RdRp (Poliovirus type 1, UniProt P03300)
Assay: not given
Settings: cited from earlier work

poliovirus 3D RdRp, sequence (P03300 1749-2209 limits assumed): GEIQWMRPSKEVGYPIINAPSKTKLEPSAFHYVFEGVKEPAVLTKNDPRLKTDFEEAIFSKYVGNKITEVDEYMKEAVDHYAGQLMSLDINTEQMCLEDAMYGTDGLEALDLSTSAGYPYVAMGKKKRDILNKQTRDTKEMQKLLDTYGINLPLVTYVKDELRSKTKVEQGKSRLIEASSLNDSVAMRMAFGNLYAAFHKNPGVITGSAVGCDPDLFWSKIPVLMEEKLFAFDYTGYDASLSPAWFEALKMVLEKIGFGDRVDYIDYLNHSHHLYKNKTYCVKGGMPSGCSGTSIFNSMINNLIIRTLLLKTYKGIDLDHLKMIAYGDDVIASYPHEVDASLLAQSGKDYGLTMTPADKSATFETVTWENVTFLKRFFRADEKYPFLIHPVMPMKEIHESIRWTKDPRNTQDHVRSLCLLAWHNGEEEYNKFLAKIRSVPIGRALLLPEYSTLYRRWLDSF

| Compound | inhibition of poliovirus 3D RdRp |
| --- | --- |
| CN1C(=O)[C@]23CC4=CC=C[C@H](O)[C@H]4N2C(=O)[C@@]1(CO)SS3 [Gliotoxin, gliotoxin] | known poliovirus 3D RdRp inhibitor |

Target: T1, HCV NS5B (Hepatitis C virus genotype 1b, UniProt P26663)
Assay: Nucleotide incorporation assay using end-labeled primers
Assay type: biochemical
Settings: 5 μM template, 10 μM end-labeled primer, 100 μM NTP, 30° C. for 30 min
Experimental: Nucleotide incorporation assay using end-labeled primers. A standard nucleotide incorporation reaction was performed in a 20 μl volume, containing 50 mM HEPES (pH 7.3), 10 mM β-mecaptoethanol, 50 mM NaCl, 5 mM MgCl2, 5 μM of template RNA, 10 μM of end-labeled primer, 3 to 5 μM of polymerase protein and 100 μM of NTP substrate, as described. Single nucleotide incorporation by HCV replicase was tested using radiolabeled diguanylate (^33pGpG) as a primer and three RNA templates corresponding to SEQ ID NO: 11 [(ACC)7], SEQ ID NO: 9 [(tJCC)7], and SEQ ID NO: 10 [(GCC)7]. Reactions involved ^33pGpG primer alone and with (1) (ACC)7 RNA as the template plus either no NTP, 100 μM UTP or 100 μM ATP, (2) (UCC)7 RNA as the template plus either no NTP, 100 μM ATP or 100 μM CTP, and (3) (GCC)7 RNA as the template plus either no NTP, 100 μM CTP or 100 μM ATP. To show the efficiency of guanylate primers of different length in priming nucleotide incorporation, four template-primer pairs were tested in a standard primer-extension assay: […] (SEQ ID NO: 10)/^33pGG; […] (SEQ ID NO: 12)/^33pGGG; […],(SEQ ID NO-13)/^33pGGGG (SEQ ID NO: 32); and […] (SEQ ID NO: 7)/^33pGpqGG (SEQ ID NO: 33). Reactions were performed using 100 μM of CTP or without a nucleotide substrate.
Reactions contained (UCC)7 alone, (UCC)7 plus 100 μM of ATP, (UCC)6AAA alone, or (UCC)6AAA plus 100 μM of ATP. In addition, RNAs of SEQ ID NOS: 11, 30 and 31 were tested for single-nucleotide incorporation with ^33pGpG as the primer.
To show the minimum length requirement for a template RNA of the invention RNA templates of decreasing length (21 to 4-nt), e.g., SEQ ID NOS: 8 and 14-20 were tested for the ability to direct single-nucleotide incorporation using ^33pGpG as the primer. All reactions contained 100 μM of ATP and one template RNA. Multiple cycles of nucleotide incorporation were performed using a 10-mer RNA and ^33pGpG as the primer. Reactions contained either 100 μM of ATP alone, or 100 μM each of ATP and CTP, or 100 μM each of ATP, CTP and GTP. The reactions were quenched at different times from 15 to 900 seconds.
Various dinucleotide primers for RNA synthesis and nucleotide incorporation using HCV 3′ terminal sequences as template were used. The following RNA templates were used: 5′ AAAAAACAGUCC 3′ (SEQ ID NO: 17), 5′ AAAACAGUGC 3′ (SEQ ID NO: 21), 5′ AAAAAACAGUCG 3′ (SEQ ID NO: 22), 5′ AAAAAACAGUGG 3′ (SEQ ID NO: 23), 5′ AAAAAACAGUAC 3′ (SEQ ID NO: 24), 5′ AAAAAACAGUCA 3′ (SEQ ID NO: 25), which differ by two residues at the 3′ terminal positions. Dinucleotide primers, ^33pGpG, ^33pGpC, ^33pCpG, ^33pCpC, ^33pGpU and ^33pUpG, were paired with respective templates in the absence or presence of 100 μM ATP substrate. RNA templates, 3′(+) and 3′(−), consisted of the 3′ terminal sequences of positive-strand and negative-strand HCV genome, respectively. Primers ^33pApC and ^33pGpC were used for 3′(+) and 3′(−) RNA, respectively, in the absence of nucleotide substrate and in the presence of ATP or CTP.
Reaction mixtures were incubated at 30° C. for 30 min, followed by phenol and chloroform extraction and ethanol precipitation in the presence of glycogen carrier. Product was dissolved in a urea/TBE sample buffer (Novex, San Diego, Calif.) and separated on a 23 to 25% PAGE/6 M Urea/1× TBE gel. The gel was then covered with plastic wrap and exposed to an X-ray film.

| Compound | nucleotide incorporation (extension of end-labeled primer) |
| --- | --- |
| GGGG (5' 33P label, further chemistry not given here) [^33pGGGG] | detrimental to the activity |
| GGGGG (RNA, backbone not given here; further chemistry not fully specified) [^33pGGGGG] | detrimental to the activity |
| pGpG [GG] | capable of priming nucleotide (AMP) incorporation |
| 5′ UCCUCCUCCUCCUCCUCCUCC 3′ (UCCUCCUCCUCCUCCUCCUCC; RNA, backbone not given here) [(UCC)7] | only the correct nucleotide, ATP or CTP, resulted in primer extension |
| 5′ C ACCACCACCACCACCACCAC 3′ (CACCACCACCACCACCACCAC; RNA, backbone not given here) [SEQ ID NO: 31] | significant reduction in activity |
| 5′ UCU GCA GAU CAU GU 3′ (UCUGCAGAUCAUGU; RNA, backbone not given here) [SEQ ID NO: 26, 3′ terminus of HCV positive-strand RNA genome] | single-nucleotide incorporation was detected |
| 5′ ACCACCACCACCACCACCACC 3′ (ACCACCACCACCACCACCACC; RNA, backbone not given here) [(ACC)7] | single nucleotide incorporation was observed only when UTP was used |
| GGG [^33pGGG] | supported nucleotide incorporation with the highest efficiency |
| 5′ AUC AGG GGG CUG GC 3′ (AUCAGGGGGCUGGC; RNA, backbone not given here) [SEQ ID NO: 27, 3′ terminus of HCV negative-strand RNA genome] | single-nucleotide incorporation was detected; also recorded: higher overall activity |
| pGpC [GC] | capable of priming nucleotide (AMP) incorporation |
| 5′ CC ACC ACC ACC ACC ACC ACCA 3′ (CCACCACCACCACCACCACCA; RNA, backbone not given here) [SEQ ID NO: 30] | significant reduction in activity |
| 5′ GCCGCCGCCGCCGCCGCCGCC 3′ (GCCGCCGCCGCCGCCGCCGCC; RNA, backbone not given here) [(GCC)7] | only the correct nucleotide, ATP or CTP, resulted in primer extension |

Same assay, conditions: 5 μM template, 10 μM end-labeled primer, 100 μM NTP, 30° C. for 30 min; listed as 33pGG

| Compound | nucleotide incorporation (extension of end-labeled primer) |
| --- | --- |
| pGpG [GG] | supported nucleotide incorporation with the highest efficiency |

Target: HCV NS5B replicase (Hepatitis C virus genotype 1b, UniProt P26663)
Sequence (P26663 2420-3010 limits assumed): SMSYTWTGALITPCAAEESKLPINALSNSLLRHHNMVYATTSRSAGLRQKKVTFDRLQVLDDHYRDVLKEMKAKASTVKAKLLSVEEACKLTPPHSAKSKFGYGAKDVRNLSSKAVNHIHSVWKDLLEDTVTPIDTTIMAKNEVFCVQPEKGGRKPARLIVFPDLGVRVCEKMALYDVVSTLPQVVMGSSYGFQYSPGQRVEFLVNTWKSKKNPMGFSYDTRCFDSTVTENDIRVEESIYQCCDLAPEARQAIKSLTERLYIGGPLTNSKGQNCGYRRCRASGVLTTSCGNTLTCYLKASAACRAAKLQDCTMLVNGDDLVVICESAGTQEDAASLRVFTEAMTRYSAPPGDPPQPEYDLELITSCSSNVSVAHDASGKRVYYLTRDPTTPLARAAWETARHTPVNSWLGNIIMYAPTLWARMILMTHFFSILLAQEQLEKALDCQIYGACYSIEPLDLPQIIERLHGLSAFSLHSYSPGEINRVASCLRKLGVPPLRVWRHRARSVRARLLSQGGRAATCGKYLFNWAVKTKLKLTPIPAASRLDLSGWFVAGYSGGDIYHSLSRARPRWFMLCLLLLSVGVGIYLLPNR
Assay: not given
Settings: cited from earlier work

| Compound | inhibition of HCV NS5B replicase |
| --- | --- |
| CN1C(=O)[C@]23CC4=CC=C[C@H](O)[C@H]4N2C(=O)[C@@]1(CO)SS3 [Gliotoxin, gliotoxin] | inhibits HCV NS5B replicase in a dose dependent manner |

Target: T1, HCV NS5B
Assay: not given
Assay type: biochemical
Settings: not given
Target sequence in this assay (P26663 2420-2989 limits assumed): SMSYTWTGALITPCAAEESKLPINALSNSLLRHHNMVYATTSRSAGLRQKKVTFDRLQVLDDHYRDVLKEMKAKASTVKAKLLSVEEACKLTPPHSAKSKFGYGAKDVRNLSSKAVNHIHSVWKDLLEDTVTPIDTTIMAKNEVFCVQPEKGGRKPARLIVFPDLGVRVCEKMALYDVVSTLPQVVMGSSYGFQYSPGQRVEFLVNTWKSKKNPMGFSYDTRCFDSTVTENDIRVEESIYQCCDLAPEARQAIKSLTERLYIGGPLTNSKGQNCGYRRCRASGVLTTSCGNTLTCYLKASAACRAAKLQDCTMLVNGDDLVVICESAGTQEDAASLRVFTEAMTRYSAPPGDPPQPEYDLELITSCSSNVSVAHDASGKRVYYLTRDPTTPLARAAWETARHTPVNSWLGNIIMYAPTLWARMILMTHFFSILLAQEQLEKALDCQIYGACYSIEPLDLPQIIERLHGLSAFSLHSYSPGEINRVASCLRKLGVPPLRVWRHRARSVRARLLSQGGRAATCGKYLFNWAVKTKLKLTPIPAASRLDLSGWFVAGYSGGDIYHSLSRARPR

| Compound | extension/utilization of end-labeled RNA |
| --- | --- |
| 5′ GCA UGG GCC C 3′ [sym/sub RNA, reference compound] | no primer extension was observed |
